Reference: patent US20240254087A1, “SELECTIVE, PARTIAL, AND ARRESTIN-BIASED 5-HT2A AGONISTS WITH UTILITY IN VARIOUS DISORDERS” (Saint Joseph's University, priority 2021, published 2024)
Like-named read-outs stand apart in the source and are kept apart here.

Experiments:
male C57BL/6J mice = assay: Head-twitch response (HTR) in mice; format: in vivo, mouse; details: for ED50: Mus musculus
Method: Male C57BL/6J mice (6-8 weeks old) from Jackson Labs (Bar Harbor, ME, USA) were used for the behavioral experiments. The mice were housed on a reversed light-dark cycle (lights on at 1900 h, off at 0700 h) in an AAAC-approved vivarium at the University of California San Diego. Mice were housed up to four per cage in a climate-controlled room and with food and water provided ad libitum except during behavioral testing. Testing was performed between 1000 and 1800 h (during the dark phase of the light-dark cycle). The studies were conducted in accordance with National Institutes Health (NIH) guidelines and were approved by the University of California San Diego Institutional Animal Care and Use Committee.
The mice were allowed to recover from the magnet implantation surgeries for at least 1 week prior to behavioral testing. HTR experiments were conducted in a well-lit room, and the mice were allowed to habituate to the room for at least 1 h prior to testing. Head twitches was assessed in a 12-cm diameter glass cylinder surrounded by a magnetometer coil. Coil voltage was low-pass filtered (2 kHz), amplified, and digitized (20-kHz sampling rate) using a Powerlab/8SP with LabChart v 7.3.2 (ADInstruments, Colorado Springs, CO, USA). […] HTR counts were analyzed using one-way ANOVAs. Dunnett's test was used for post hoc comparisons.

5-HT2A [1] = target: T1, 5-HT2A (Homo sapiens, UniProt P28223); assay: cell-based; design: expressed in transfected cells; host or cells: HEK293T, transient; details: for Emax: read-out: 5-HT2A Gq Emax (% 5-HT), BRET, mean ± SEM
Method: (§1) After at least 18-24 hours, transfected cells were plated in poly-lysine coated 96-well white clear bottom cell culture plates in DMEM containing 1% dialyzed FBS at a density of 25-40,000 cells in 200 μL per well and incubated overnight. After approximately 20-24 hours, media was decanted and cells were washed with 60 μL of drug buffer (1×HBSS, 20 mM HEPES, pH 7.4), followed by 60 μL of drug buffer and pre-incubated in a humidified atmosphere at 37° C. before receiving drug stimulation. Drug stimulation was induced by adding 30 μL of a solution of drug (3X) diluted in McCorvy buffer (1×HBSS, 20 mM HEPES, pH 7.4, supplemented with 0.3% BSA fatty acid free, 0.03% ascorbic acid) and plates were incubated at the indicated time and temperature. Fifteen minutes before reading, 10 μL of the RLuc substrate, either coelenterazine h for β-Arrestin recruitment BRET^1 or coelenterazine 400a for Gq dissociation BRET^2 (Prolume/Nanolight, 5 μM final concentration) was addedper well. […] The BRET ratios of fluorescence/luminescence were calculated per well and were plotted as a function of drug concentration using Graphpad Prism 8 (Graphpad Software Inc., San Diego, CA).

5-HT2A [2] = target: T1, 5-HT2A; assay: cell-based; design: expressed in transfected cells; host or cells: HEK293T, transient; details: for Emax: read-out: 5-HT2A β-arrestin Emax (% 5-HT), BRET, mean ± SEM
Method: as §1

5-HT2B = 5-HT2B (Homo sapiens, UniProt P41595); assay: BRET Gq dissociation, 5-HT2B; format: cell-based; design: expressed in transfected cells; host or cells: HEK293T, transient
Method: After at least 18-24 hours, transfected cells were plated in poly-lysine coated 96-well white clear bottom cell culture plates in DMEM containing 1% dialyzed FBS at a density of 25-40,000 cells in 200 μL per well and incubated overnight. After approximately 20-24 hours, media was decanted and cells were washed with 60 μL of drug buffer (1×HBSS, 20 mM HEPES, pH 7.4), followed by 60 μL of drug buffer and pre-incubated in a humidified atmosphere at 37° C. before receiving drug stimulation. Drug stimulation was induced by adding 30 μL of a solution of drug (3X) diluted in McCorvy buffer (1×HBSS, 20 mM HEPES, pH 7.4, supplemented with 0.3% BSA fatty acid free, 0.03% ascorbic acid) and plates were incubated at the indicated time and temperature. Fifteen minutes before reading, 10 μL of the RLuc substrate, either coelenterazine h for β-Arrestin recruitment BRET^1 or coelenterazine 400a for Gq dissociation BRET^2 (Prolume/Nanolight, 5 μM final concentration) was addedper well. Plates were read for luminescence at 485 nm and fluorescent eYFP emission at 530 nm for BRET^1 and at 400 nm and fluorescent GFP2 emission at 510 nm for BRET2 at 1 second per well using a Mithras LB940 (Berthold). The BRET ratios of fluorescence/luminescence were calculated per well and were plotted as a function of drug concentration using Graphpad Prism 8 (Graphpad Software Inc., San Diego, CA).

5-HT2C = target: T2, 5-HT2C (Homo sapiens, UniProt P28335); assay: BRET Gq dissociation, 5-HT2C; format: cell-based; design: expressed in transfected cells; host or cells: HEK293T, transient; details: for Emax: read-out: 5-HT2C Gq Dissociation (BRET) EMAX ± SEM (%5-HT); for EC50: read-out: 5-HT2C Gq Dissociation (BRET) pEC50 ± SEM (converted)
T2 sequence (P28335 33-458): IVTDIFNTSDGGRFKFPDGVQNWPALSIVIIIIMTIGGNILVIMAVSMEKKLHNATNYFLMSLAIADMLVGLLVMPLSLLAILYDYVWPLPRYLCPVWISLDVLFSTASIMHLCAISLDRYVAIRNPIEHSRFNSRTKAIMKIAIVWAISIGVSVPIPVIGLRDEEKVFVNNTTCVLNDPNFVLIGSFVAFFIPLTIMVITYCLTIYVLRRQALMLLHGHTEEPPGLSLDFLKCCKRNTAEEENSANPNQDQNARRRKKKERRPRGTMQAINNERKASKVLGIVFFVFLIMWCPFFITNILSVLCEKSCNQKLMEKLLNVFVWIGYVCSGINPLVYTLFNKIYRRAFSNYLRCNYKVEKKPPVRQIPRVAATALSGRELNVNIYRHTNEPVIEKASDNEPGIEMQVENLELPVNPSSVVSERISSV
Method: as §1

[3] = read-out: HTR ED50 mg/kg (95% CI), SC, except DOI and 25D-NBOMe IP
[4] = BRET, mean ± SEM, read-out: 5-HT2A Gq dissociation pEC50 (converted)
[5] = BRET, mean ± SEM, read-out: 5-HT2A β-arrestin recruitment pEC50 (converted)

Chain of 5-HT2B (P41595 whole entry): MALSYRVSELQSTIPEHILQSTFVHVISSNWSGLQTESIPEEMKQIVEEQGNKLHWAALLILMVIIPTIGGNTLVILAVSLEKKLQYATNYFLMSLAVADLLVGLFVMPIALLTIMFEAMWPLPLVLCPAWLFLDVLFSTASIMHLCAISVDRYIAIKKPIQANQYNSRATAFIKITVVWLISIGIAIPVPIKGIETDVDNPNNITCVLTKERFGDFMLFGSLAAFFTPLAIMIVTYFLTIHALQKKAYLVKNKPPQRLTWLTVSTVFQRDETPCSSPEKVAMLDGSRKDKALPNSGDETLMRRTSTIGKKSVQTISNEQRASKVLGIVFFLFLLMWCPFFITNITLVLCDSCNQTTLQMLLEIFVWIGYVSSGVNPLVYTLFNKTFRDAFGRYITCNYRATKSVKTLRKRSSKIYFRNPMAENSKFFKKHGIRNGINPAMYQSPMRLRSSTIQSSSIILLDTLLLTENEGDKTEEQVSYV
T1 sequence (P28223 whole entry): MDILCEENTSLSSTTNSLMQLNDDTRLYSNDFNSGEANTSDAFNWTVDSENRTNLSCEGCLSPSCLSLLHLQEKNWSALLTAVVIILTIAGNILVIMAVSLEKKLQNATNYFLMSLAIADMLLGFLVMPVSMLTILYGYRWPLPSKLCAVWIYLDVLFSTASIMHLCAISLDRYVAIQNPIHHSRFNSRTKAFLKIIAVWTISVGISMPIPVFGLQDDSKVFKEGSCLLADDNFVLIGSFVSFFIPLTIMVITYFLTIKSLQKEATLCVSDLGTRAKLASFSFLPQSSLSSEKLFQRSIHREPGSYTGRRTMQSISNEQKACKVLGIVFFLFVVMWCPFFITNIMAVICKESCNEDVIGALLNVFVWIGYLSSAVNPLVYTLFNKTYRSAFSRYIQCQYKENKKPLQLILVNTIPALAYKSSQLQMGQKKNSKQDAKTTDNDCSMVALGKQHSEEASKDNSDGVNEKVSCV

| SMILES | Max HTR response during a 30-min assessment (maximum counts ÷ baseline response) (male C57BL/6J mice) | ED50 (male C57BL/6J mice; read-out: HTR ED50 μmol/kg (95% CI), SC, except DOI and 25D-NBOMe IP) [µmol/kg] | ED50 (male C57BL/6J mice; [3]) [mg/kg] | 5-HT2A Gq Emax (% 5-HT) (5-HT2A [1]; BRET, mean ± SEM) | Emax (5-HT2A [1]) [%] | Emax (5-HT2A [2]) [%] | Induction of the HTR in mice (in words) (male C57BL/6J mice) | EC50 (5-HT2A [1]; [4]) [nM] | EC50 (5-HT2A [2]; [5]) [nM] | 5-HT2B Gq Dissociation (BRET) EMAX ± SEM (%5-HT) (5-HT2B) | 5-HT2B Gq Dissociation (BRET) pEC50 ± SEM (5-HT2B) | Emax (5-HT2C) [%] | EC50 (5-HT2C) [nM] | Emax (5-HT2B; read-out: 5-HT2B Gq Dissociation (BRET) EMAX ± SEM (%5-HT)) [%] | EC50 (5-HT2B; read-out: 5-HT2B Gq Dissociation (BRET) pEC50 ± SEM (converted)) [nM] | EC50 (5-HT2A [1]) [nM] | 5-HT2A Gq dissociation pEC50 (5-HT2A [1]; BRET, mean ± SEM) | EC50 (5-HT2A [2]) [nM] |
| --- | --- | --- | --- | --- | --- | --- | --- | --- | --- | --- | --- | --- | --- | --- | --- | --- | --- | --- |
| COc1cc(CCNCc2ccccc2OC)c(OC)cc1C [25D-NBOMe (26)] | 15.6-fold increase | 0.64 | 0.23 | 93.0 ± 1.3 | ≥ 76 | 126 ± 3.4 | – | – | – | – | – | – | – | – | – | – | – | – |
| COc1cc(OC)c(OC)cc1CCNCc1cccc2ccccc12 [(38)] | 1.0-fold increase | – | > 30 | – | 24.3 ± 1.2 | 74.9 ± 1.9 | failed to induce a HTR | 5.5 | 1.62 | No activity | No activity | 64.4 ± 2 | 12.6 | – | – | – | – | – |
| COc1cc2c(cc1CCNCc1cccc3ccccc13)OCO2 [(39), [2-(6-methoxy-2H-1,3-benzodioxol-5-yl)ethyl][(naphthalen-1-yl)methyl]amine] | 1.4-fold increase | – | > 30 | – | 26.4 ± 2 | 80.1 ± 2.5 | failed to induce a HTR | 15.5 | 5.89 | No activity | No activity | 90.5 ± 2.3 | 17 | – | – | – | – | – |
| COc1cc(OC)c(OC)cc1CCNCc1cccc(Br)c1O [(48)] | – | – | – | – | 53.6 ± 1.7 | 85 ± 4.8 | – | 20.4 | 8.13 | No activity | No activity | 69.2 ± 6.1 | 174 | – | – | – | – | – |
| COc1cc(OC)c(OC)cc1CCNCc1cccc(I)c1O [(49)] | – | – | – | – | 52.8 ± 1.5 | 80.5 ± 5.5 | – | 14.5 | 11.7 | No activity | No activity | 93.5 ± 3.1 | 26.9 | – | – | – | – | – |
| COc1cc(OC)c(OC)cc1CCNCc1cccc(C)c1C [(50)] | – | – | – | – | 23.6 ± 1 | 73.9 ± 5.4 | – | 3.47 | 5.75 | No activity | No activity | 30.4 ± 2.7 | 1.55 | – | – | – | – | – |
| COc1cc(OC)c(OC)cc1CCNCc1cccc2c1CCC2 [(51)] | – | – | – | – | 41.2 ± 1.9 | 72.9 ± 4.2 | – | 1.7 | 3.31 | No activity | No activity | 52.5 ± 5.2 | 93.3 | – | – | – | – | – |
| COc1cc(OC)c(OC)cc1CCNCc1cccc2c1CCCC2 [(52)] | – | – | – | – | 43.7 ± 1.1 | 65 ± 4.9 | – | 7.59 | 1.78 | No activity | No activity | 43.6 ± 3.8 | 34.7 | – | – | – | – | – |
| COc1cc(OC)c(OC)cc1CCNCc1cccc2cccnc12 [(54)] | – | – | – | – | 54.3 ± 1.5 | 100 ± 3.5 | – | 11.2 | 8.51 | No activity | No activity | 90.5 ± 3.1 | 14.8 | – | – | – | – | – |
| COc1cc(OC)c(OC)cc1CCNCc1cccc2cnccc12 [(56)] | – | – | – | – | 64.1 ± 1.5 | 75.8 ± 8.3 | – | 26.3 | 17.4 | No activity | No activity | 80.9 ± 3.4 | 126 | – | – | – | – | – |
| COc1cc(OC)c(OC)cc1CCNCc1cccc2ncccc12 [(57)] | – | – | – | – | 34.2 ± 4 | 92 ± 8.9 | – | – | – | No activity | No activity | 77.6 ± 3.2 | 200 | – | – | – | – | – |
| COc1cc(OC)c(OC)cc1CCNCc1ccccc1-c1ccco1 [(58)] | – | – | – | – | 51.9 ± 2.2 | 112 ± 6.2 | – | 50.1 | 56.2 | – | – | 94 ± 4 | 14.1 | 37.6 ± 2 | 3.09 | – | – | – |
| COc1cc(OC)c(OC)cc1CCNCc1ccccc1Oc1ccccc1 [(60)] | – | – | – | – | 63.3 ± 3.5 | 117 ± 14.6 | – | – | – | No activity | No activity | 113 ± 11.6 | 1700 | – | – | – | – | – |
| COc1cc(OC)c(OC)cc1CCNCc1cccc(-c2ccccc2)c1 [(62)] | – | – | – | – | 23.7 ± 2.1 | 112 ± 6.2 | – | – | 56.2 | No activity | No activity | 72.8 ± 5.2 | 219 | – | – | 182 | – | – |
| COc1cc(OC)c(OC)cc1CCNCc1cccc(-c2ccccc2)c1O [(63)] | – | – | – | – | < 10 | 117 ± 14.6 | – | – | – | No activity | No activity | 79.2 ± 2.6 | 51.3 | – | – | – | No activity | 102 |
| COc1cc(OC)c(OC)cc1CCNCc1cccc(F)c1F [(65)] | – | – | – | – | 76.5 ± 2.3 | 101 ± 2.7 | – | 64.6 | 170 | No activity | No activity | 83.3 ± 6.3 | 200 | – | – | – | – | – |
